Measured values: US11548919B1, “SARS-CoV-2 polypeptide inhibitors directed against the Env TM domain and methods of treatment using said inhibitors” (priority 2022, dated 2023)
“Also recorded” adds a separate entry of the source. Square brackets hold non-standard residues; d marks the D form. Ends that are not written are not given here. Nap = naphthyl group, N-terminal cap; Aib = CC(C)(N)C(=O)O

Test system: SARS-CoV-2 Omicron variant pseudovirus
Assay type: cell-based
Conditions: for fluorescence of peptide groups versus no-peptide control: N=3

Row | Substance | inhibition of SARS-CoV-2 Omicron pseudovirus infection / replication in mammalian cells | fluorescence of peptide groups versus no-peptide control
1 | NapFFTLUFLTUTEKKKK (Nap-FFTL[Aib]FLT[Aib]TEKKKK) | effectively inhibited viral replication; also recorded: significantly inhibited | statistically (p<0.01) less than
2 | NapFFMLUFLMUMEKKKK (Nap-FFML[Aib]FLM[Aib]MEKKKK) | effectively inhibited viral replication; also recorded: significantly inhibited | statistically (p<0.01) less than
